Test results: patent US5869477A, “β-methylcarbapenem derivatives, process for the preparation thereof and pharmaceutical composition comprising same” (priority 1995, dated 1999)
Like-named read-outs stand apart in the source and are kept apart here.

How the values were obtained:
E. coli 1507 E = assay: agar plate dilution method, MIC; format: cell-based; conditions: about 10^7 CFU/ml, 37° C., 18 hours
Method: (§1) The antibacterial activities of the β-methylcarbapenem compounds of the present invention prepared in the above Examples were determined in accordance with the agar plate dilution method(Hoechst 345). Specifically,about 10^7 CFU/ml of test bacteria(Hoechst standard strains) was inoculated to a Muller-Hinton agar medium containing serial double dilutions of the test compounds, i.e., compounds prepared in Examples 1 to 3, and incubated at 37° C. for 18 hours. Tribactam(EP 416953) and SUN-5555(Santory Co., Japan) were employed as control materials for carbapenem and penem, respectively. When the incubation was completed, the minimum inhibitory concentration of each test compounds was determined.

E. coli DC 0 = assay: agar plate dilution method, MIC; format: cell-based; conditions: about 10^7 CFU/ml, 37° C., 18 hours
Method: as §1

S. aureus 503 = assay: agar plate dilution method, MIC; format: cell-based; conditions: about 10^7 CFU/ml, 37° C., 18 hours
Method: as §1

S. aureus 285 = assay: agar plate dilution method, MIC; format: cell-based; conditions: about 10^7 CFU/ml, 37° C., 18 hours
Method: as §1

S. typhimurium = assay: agar plate dilution method, MIC; format: cell-based; conditions: about 10^7 CFU/ml, 37° C., 18 hours
Method: as §1

E. coli 078 = assay: agar plate dilution method, MIC; format: cell-based; conditions: about 10^7 CFU/ml, 37° C., 18 hours
Method: as §1

K. oxytoca 1082 E = assay: agar plate dilution method, MIC; format: cell-based; conditions: about 10^7 CFU/ml, 37° C., 18 hours
Method: as §1

S. aureus SG 511 = assay: agar plate dilution method, MIC; format: cell-based; conditions: about 10^7 CFU/ml, 37° C., 18 hours
Method: as §1

E. coli TEM = assay: agar plate dilution method, MIC; format: cell-based; conditions: about 10^7 CFU/ml, 37° C., 18 hours
Method: as §1

K. aerogenes 1522 E = assay: agar plate dilution method, MIC; format: cell-based, Klebsiella aerogenes; conditions: about 10^7 CFU/ml, 37° C., 18 hours
Method: as §1

E. cloacae 1321 E = assay: agar plate dilution method, MIC; format: cell-based, Enterobacter cloacae; conditions: about 10^7 CFU/ml, 37° C., 18 hours
Method: as §1

S. pyogenes 308A = assay: agar plate dilution method, MIC; format: cell-based, Streptococcus pyogenes; conditions: about 10^7 CFU/ml, 37° C., 18 hours
Method: as §1

S. pyogenes 77A = assay: agar plate dilution method, MIC; format: cell-based, Streptococcus pyogenes; conditions: about 10^7 CFU/ml, 37° C., 18 hours
Method: as §1

P. aeruginosa 1771 M = assay: agar plate dilution method, MIC; format: cell-based, Pseudomonas aeruginosa; conditions: about 10^7 CFU/ml, 37° C., 18 hours
Method: as §1

P. aeruginosa 1592 E = assay: agar plate dilution method, MIC; format: cell-based, Pseudomonas aeruginosa; conditions: about 10^7 CFU/ml, 37° C., 18 hours
Method: as §1

P. aeruginosa 1771 = assay: agar plate dilution method, MIC; format: cell-based, Pseudomonas aeruginosa; conditions: about 10^7 CFU/ml, 37° C., 18 hours
Method: as §1

P. aeruginosa 9027 = assay: agar plate dilution method, MIC; format: cell-based, Pseudomonas aeruginosa; conditions: about 10^7 CFU/ml, 37° C., 18 hours
Method: as §1

S. faecium MD 8b = assay: agar plate dilution method, MIC; format: cell-based, Streptococcus faecium; conditions: about 10^7 CFU/ml, 37° C., 18 hours
Method: as §1

E. cloacae P 99 = assay: agar plate dilution method, MIC; format: cell-based, Enterobacter cloacae; conditions: about 10^7 CFU/ml, 37° C., 18 hours
Method: as §1

[1] = bioavailability indices in infected mice, one-compartment oral model; parameters: species or system I.C.R. mouse; conditions: in vivo; for AUC / p.o./s.c. / Cmax / Tmax / half-life: 40 mg/kg; for pharmacokinetics values and p.o. absorption versus controls (in words) / Cmax / Tmax / half-life: po
Method: The in vivo antibacterial activities and pharmacological activities of the β-methylcarbapenem compounds of the present invention were tested as follows. Specifically, 4 to 5 week-old I.C.R. mouse, each weighing 22 to 25 g and infected with Streptococcus pyogenes 77A, were administered per os with the solutions of the compounds of Examples 5 and 9 dissolved in 10% DMSO, at a dosage of 40 mg/kg body weight. The bioavailability indices, e.g., Cmax, Tmax, t1/2, AUC and p.o./s.c. were determined in accordance with one-compartment oral model method(Drug Metabolism Reviews, 17, 331-348(1986)). The one-compartment oral model was prepared by curve fitting using Gauss-Newto method and calculation using PKCALC computer program.

| p.o./s.c. ([1]; mouse) [%] | half-life ([1]; mouse) [min] | SMILES | minimum inhibitory concentration (E. coli 1507 E) | minimum inhibitory concentration (E. coli DC 0) | minimum inhibitory concentration (S. aureus 503) | minimum inhibitory concentration (S. aureus 285) | minimum inhibitory concentration (S. typhimurium) | minimum inhibitory concentration (E. coli 078) | minimum inhibitory concentration (K. oxytoca 1082 E) | minimum inhibitory concentration (S. aureus SG 511) | minimum inhibitory concentration (E. coli TEM) | minimum inhibitory concentration (K. aerogenes 1522 E) | minimum inhibitory concentration (E. cloacae 1321 E) | minimum inhibitory concentration (S. pyogenes 308A) | minimum inhibitory concentration (S. pyogenes 77A) | minimum inhibitory concentration (P. aeruginosa 1771 M) | minimum inhibitory concentration (P. aeruginosa 1592 E) | minimum inhibitory concentration (P. aeruginosa 1771) | minimum inhibitory concentration (P. aeruginosa 9027) | minimum inhibitory concentration (S. faecium MD 8b) | also measured |
| --- | --- | --- | --- | --- | --- | --- | --- | --- | --- | --- | --- | --- | --- | --- | --- | --- | --- | --- | --- | --- | --- |
| – | – | CC(C)[C@@H](O)C1=C(C(=O)O)N2C(=O)[C@H]([C@@H](C)O)[C@H]2[C@H]1C [Example 1, potassium (1S, 5R, 6S)-2-[(1R)-1-hydroxy-2-methylpropyl]-6-[(1R)-1-hydroxyethyl]-1-methyl-2-carbapenem-3-carboxylate] | 0.049 | 0.195 | 0.098 | 0.098 | 0.098 | 0.049 | 1.563 | 0.098 | 0.195 | 0.391 | 0.098 | 0.013 | 0.013 | 0.781 | > 100 | 100 | > 100 | 3.125 | – |
| – | – | C[C@@H](O)[C@H]1C(=O)N2C(C(=O)O)=C([C@H](O)C3CC3)[C@H](C)[C@H]12 [Example 2, potassium (1S, 5R, 6S)-2-[(R)-(cyclopropyl) hydroxymethyl]-6-[(1R)-1-hydroxyethyl]-1-methyl-2-carbapenem-3-carboxylate] | 0.049 | 0.098 | 0.049 | 0.049 | 0.098 | 0.098 | 0.781 | 0.049 | 0.098 | 0.195 | 0.098 | 0.007 | 0.007 | 1.563 | 100.0 | 100.0 | 100.0 | 0.781 | – |
| – | – | C[C@@H](O)[C@H]1C(=O)N2C(C(=O)O)=C([C@H](O)C3CCCC3)[C@H](C)[C@H]12 [Example 3, potassium (1S, 5R, 6S)-2-[(R)-(cyclopentyl)hydroxymethyl]-6-[(1R)-1-hydroxyethyl]-1-methyl-2-carbapenem-3-carboxylate] | 0.098 | – | 0.098 | 0.098 | 0.098 | 0.195 | 1.563 | 0.098 | 0.391 | 0.781 | 0.391 | 0.004 | 0.007 | 1.563 | > 100.0 | > 100.0 | > 100.0 | 0.781 | minimum inhibitory concentration (E. cloacae P 99): 6.250 |
| 32.50 | 16.2 | Cc1oc(=O)oc1COC(=O)C1=C([C@H](O)C(C)C)[C@H](C)[C@@H]2[C@@H]([C@@H](C)O)C(=O)N12 [Example 5, (5-methyl-2-oxo-1,3-dioxolen-4-yl)methyl (1S, 5R, 6S)-2-[(1R)-1-hydroxy-2-methylpropyl]-6-[(1R)-1-hydroxyethyl]-1-methyl-2-carbapenem-3-carboxylate] | – | – | – | – | – | – | – | – | – | – | – | – | – | – | – | – | – | – | AUC ([1]; mouse): 3.80; pharmacokinetics values and p.o. absorption versus controls (in words) ([1]; mouse): superior pharmacokinetics values and p.o. absorption over the controls; Cmax ([1]; mouse): 8770 ng/mL; Tmax ([1]; mouse): 10.2 min |
| 32.42 | 19.8 | CC(C)OC(=O)OC(C)OC(=O)C1=C([C@H](O)C(C)C)[C@H](C)[C@@H]2[C@@H]([C@@H](C)O)C(=O)N12 (stereo partly drawn) [Example 9, isopropyloxycarbonyloxy-1-ethyl (1S, 5R, 6S)-2-[(1R)-1-hydroxy-2-methylpropyl]-6-[(1R)-1-hydroxyethyl]-1-methyl-2-carbapenem-3-carboxylate] | – | – | – | – | – | – | – | – | – | – | – | – | – | – | – | – | – | – | AUC ([1]; mouse): 6.78; pharmacokinetics values and p.o. absorption versus controls (in words) ([1]; mouse): superior pharmacokinetics values and p.o. absorption over the controls; Cmax ([1]; mouse): 10400 ng/mL; Tmax ([1]; mouse): 19.8 min |

| SMILES | p.o./s.c. ([1]; mouse) [%] | half-life ([1]; mouse) [min] | minimum inhibitory concentration (E. coli 1507 E) | minimum inhibitory concentration (E. coli DC 0) | minimum inhibitory concentration (S. aureus 503) | minimum inhibitory concentration (S. aureus 285) | minimum inhibitory concentration (S. typhimurium) | minimum inhibitory concentration (E. coli 078) | minimum inhibitory concentration (K. oxytoca 1082 E) | minimum inhibitory concentration (S. aureus SG 511) | minimum inhibitory concentration (E. coli TEM) | minimum inhibitory concentration (K. aerogenes 1522 E) | minimum inhibitory concentration (E. cloacae 1321 E) | minimum inhibitory concentration (S. pyogenes 308A) | minimum inhibitory concentration (S. pyogenes 77A) | minimum inhibitory concentration (P. aeruginosa 1771 M) | minimum inhibitory concentration (P. aeruginosa 1592 E) | minimum inhibitory concentration (P. aeruginosa 1771) | minimum inhibitory concentration (P. aeruginosa 9027) | minimum inhibitory concentration (S. faecium MD 8b) | also measured |
| --- | --- | --- | --- | --- | --- | --- | --- | --- | --- | --- | --- | --- | --- | --- | --- | --- | --- | --- | --- | --- | --- |
| C[C@@H](O)[C@H]1C(=O)N2C(C(=O)O)=C([C@H]3CCCO3)S[C@H]12 [SUN-5555, reference compound] | 22.71 | 22.8 | 0.195 | 0.781 | 0.098 | 0.098 | 0.195 | 0.195 | 0.391 | 0.098 | 0.391 | 0.391 | 0.391 | 0.013 | 0.007 | 3.125 | > 100.0 | > 100.0 | > 100.0 | 6.250 | minimum inhibitory concentration (E. cloacae P 99): 1.563; Cmax ([1]; I.C.R. mouse infected with S. pyogenes 77A, per os, 10% DMSO, read-out: Cmax): 2640 ng/mL; Tmax ([1]; I.C.R. mouse infected with S. pyogenes 77A, per os, 10% DMSO, read-out: Tmax): 25.2 min |
